From ChEMBL document CHEMBL5321224, “Antimicrobial peptides: Structure, mechanism, and modification” (2023)
Values belong to the compound of their own block, whether it stands above or below them. Non-standard residues stand in square brackets, D forms with d. Residues, ends and D or L forms follow the SMILES beside them.

Experiments:
Type in all cases: functional
Pseudomonas aeruginosa [1] = experiment: Antimicrobial activity against Pseudomonas aeruginosa assessed as reduction of microbial growth incubated for 6 to 9 hr by macrodilution method; settings: time 6-9 hrs
Escherichia coli [2] = experiment: Antimicrobial activity against Escherichia coli assessed as reduction of microbial growth incubated for 6 to 9 hr by macrodilution method; settings: time 6-9 hrs
Staphylococcus aureus [3] = experiment: Antimicrobial activity against Staphylococcus aureus assessed as reduction of microbial growth incubated for 6 to 9 hr by macrodilution method; settings: time 6-9 hrs
Pseudomonas aeruginosa [4] = experiment: Antimicrobial activity against Pseudomonas aeruginosa assessed as reduction of microbial growth incubated overnight
Staphylococcus aureus [5] = experiment: Antimicrobial activity against Staphylococcus aureus assessed as reduction of microbial growth incubated overnight
Escherichia coli [6] = experiment: Antimicrobial activity against Escherichia coli assessed as reduction of microbial growth incubated overnight
Staphylococcus aureus [7] = experiment: Antimicrobial activity against Staphylococcus aureus
Pseudomonas aeruginosa [8] = experiment: Antimicrobial activity against Pseudomonas aeruginosa
Escherichia coli [9] = experiment: Antimicrobial activity against Escherichia coli
Escherichia coli [10] = experiment: Antimicrobial activity against Escherichia coli D21 assessed as reduction of microbial growth; settings: time 24 hrs
Pseudomonas aeruginosa [11] = experiment: Antimicrobial activity against Pseudomonas aeruginosa OT97 assessed as reduction of microbial
Staphylococcus aureus [12] = experiment: Antimicrobial activity against Staphylococcus aureus Cowan 1 assessed as reduction of microbial
Escherichia coli [13] = experiment: Antimicrobial activity against Escherichia coli assessed as reduction of microbial growth incubated for 18 to 24 hrs by microdilution method; settings: time 18-24 hrs
Staphylococcus aureus [14] = experiment: Antimicrobial activity against Staphylococcus aureus assessed as reduction of microbial growth incubated for 18 to 24 hrs by microdilution method; settings: time 18-24 hrs
Pseudomonas aeruginosa [15] = experiment: Antimicrobial activity against Pseudomonas aeruginosa assessed as reduction of microbial growth incubated for 18 to 24 hrs by microdilution method; settings: time 18-24 hrs

MIC (Pseudomonas aeruginosa [1]): > 100 µg/mL
MIC (Escherichia coli [2]): 25 µg/mL
MIC (Staphylococcus aureus [3]): 25 µg/mL
Compound: Ac-GIGKFLHAAKKFAKAFVAEIMNS-NH2

Compound: CC[C@@H](C)[C@H](NC(=O)[C@@H](NC(=O)CNC(=O)[C@H](CC(=O)O)NC(=O)[C@H](CCCNC(=N)N)NC(=O)[C@@H](NC(=O)[C@H](CC(N)=O)NC(=O)[C@H](CCC(N)=O)NC(=O)CNC(=O)[C@@H](NC(=O)[C@H](CCCCN)NC(=O)[C@H](CCC(=O)O)NC(=O)[C@@H](NC(=O)[C@H](CCCCN)NC(=O)[C@H](CCCCN)NC(=O)[C@H](Cc1ccccc1)NC(=O)[C@H](CC(C)C)NC(=O)[C@H](CCCCN)NC(=O)[C@H](Cc1c[nH]c2ccccc12)NC(=O)[C@@H](N)CCCCN)[C@@H](C)CC)C(C)C)[C@@H](C)CC)[C@@H](C)CC)C(=O)N[C@@H](CCCCN)C(=O)N[C@@H](C)C(=O)NCC(=O)N1CCC[C@H]1C(=O)N[C@@H](C)C(=O)N[C@H](C(=O)N[C@@H](C)C(=O)N[C@H](C(=O)N[C@H](C(=O)NCC(=O)N[C@@H](CCC(N)=O)C(=O)N[C@@H](C)C(=O)N[C@H](C(=O)N[C@@H](CCC(N)=O)C(=O)N[C@H](C(=O)N[C@@H](C)C(=O)N[C@@H](CCCCN)C(=O)O)[C@@H](C)CC)[C@@H](C)O)C(C)C)C(C)C)C(C)C
LD (Pseudomonas aeruginosa [4]): 2 µM
LD (Staphylococcus aureus [5]): >200 µM
LD (Escherichia coli [6]): 0.2 µM

MIC (Pseudomonas aeruginosa [1]): 25 µg/mL
MIC (Escherichia coli [2]): 2.5 µg/mL
MIC (Staphylococcus aureus [3]): 10 µg/mL
Compound: H-GIGKFLHAAKKFAKAFVAEIMNS-NH2

Compound: H-KWKLFKKIGIGAVLKVLK-OH
LD (Staphylococcus aureus [7]): 7 µM
LD (Pseudomonas aeruginosa [8]): 3 µM
LD (Escherichia coli [9]): 0.5 µM

Compound: H-KWKLFKKIGIGAVLKVLKTTGLPALI-OH
LD (Escherichia coli [10]): 0.3 µM
LD (Pseudomonas aeruginosa [11]): 0.7 µM
LD (Staphylococcus aureus [12]): 1 µM

Compound: CC[C@H](C)[C@H](NC(=O)CN)C(=O)NCC(=O)N[C@@H](C)C(=O)N[C@H](C(=O)N[C@@H](CC(C)C)C(=O)N[C@@H](CCCCN)C(=O)N[C@H](C(=O)N[C@@H](CC(C)C)C(=O)N[C@H](C(=O)N[C@H](C(=O)NCC(=O)N[C@@H](CC(C)C)C(=O)N1CCC[C@H]1C(=O)N[C@@H](C)C(=O)N[C@@H](CC(C)C)C(=O)N[C@H](C(=O)N[C@@H](CO)C(=O)N[C@@H](Cc1c[nH]c2ccccc12)C(=O)N[C@H](C(=O)N[C@@H](CCCCN)C(=O)N[C@@H](CCCNC(=N)N)C(=O)N[C@@H](CCCCN)C(=O)N[C@@H](CCCNC(=N)N)C(=O)N[C@@H](CCC(N)=O)C(=O)N[C@@H](CCC(N)=O)C(N)=O)[C@@H](C)CC)[C@@H](C)CC)[C@@H](C)O)[C@@H](C)O)C(C)C)C(C)C [MELITTIN]
LD (Pseudomonas aeruginosa [4]): 3 µM
LD (Staphylococcus aureus [5]): 0.2 µM
LD (Escherichia coli [6]): 0.8 µM

Compound: H-KWKLFKKIGAVLKVL-OH
LD (Staphylococcus aureus [7]): 2 µM
LD (Pseudomonas aeruginosa [8]): 4 µM
LD (Escherichia coli [9]): 1 µM

MIC (Escherichia coli [13]): 6.25 µg/mL
MIC (Staphylococcus aureus [14]): 12.5 µg/mL
MIC (Pseudomonas aeruginosa [15]): 6.25 µg/mL
Compound: H-KKKKKKKKKKGIGKFLHSAKKFGKAFVGEIMNS-OH

MIC (Pseudomonas aeruginosa [1]): > 100 µg/mL
MIC (Escherichia coli [2]): > 100 µg/mL
MIC (Staphylococcus aureus [3]): > 100 µg/mL
Compound: CC[C@H](C)[C@H](NC(=O)CN)C(=O)NCC(=O)N[C@@H](CCCCN)C(=O)N[C@@H](Cc1ccccc1)C(=O)N[C@@H](CC(C)C)C(=O)N[C@@H](Cc1c[nH]cn1)C(=O)N[C@@H](CO)C(=O)N[C@H](C)C(=O)N[C@@H](CCCCN)C(=O)N[C@@H](CCCCN)C(=O)N[C@@H](Cc1ccccc1)C(=O)N[C@H](C)C(=O)N[C@@H](CCCCN)C(=O)N[C@@H](C)C(=O)N[C@@H](Cc1ccccc1)C(=O)N[C@H](C(=O)N[C@H](C)C(=O)N[C@@H](CCC(=O)O)C(=O)N[C@H](C(=O)N[C@@H](CCSC)C(=O)N[C@@H](CC(N)=O)C(=O)N[C@@H](CO)C(N)=O)[C@@H](C)CC)C(C)C (H-GIGKFLHS[dA]KKF[dA]KAFV[dA]EIMNS-NH2)

Compound: CC[C@H](C)[C@H](NC(=O)CNC(=O)[C@@H]1CCCN1C(=O)CNC(=O)[C@H](C)NC(=O)[C@H](CCCCN)NC(=O)[C@@H](NC(=O)[C@@H](NC(=O)CNC(=O)[C@H](CC(=O)O)NC(=O)[C@H](CCCNC(=N)N)NC(=O)[C@@H](NC(=O)[C@H](CC(N)=O)NC(=O)[C@H](CCC(N)=O)NC(=O)CNC(=O)[C@@H](NC(=O)[C@H](CCCCN)NC(=O)[C@H](CCC(=O)O)NC(=O)[C@@H](NC(=O)[C@H](CCCCN)NC(=O)[C@H](CCCCN)NC(=O)[C@H](Cc1ccccc1)NC(=O)[C@H](CC(C)C)NC(=O)[C@H](CCCCN)NC(=O)[C@H](Cc1c[nH]c2ccccc12)NC(=O)[C@@H](N)CCCCN)[C@@H](C)CC)C(C)C)[C@@H](C)CC)[C@@H](C)CC)[C@@H](C)CC)C(=O)NCC(=O)N[C@@H](C)C(=O)N[C@H](C(=O)N[C@@H](CC(C)C)C(=O)N[C@@H](CCCCN)C(=O)N[C@H](C(=O)N[C@@H](CC(C)C)C(=O)N[C@H](C(=O)N[C@H](C(=O)NCC(=O)N[C@@H](CC(C)C)C(=O)O)[C@@H](C)O)[C@@H](C)O)C(C)C)C(C)C
LD (Pseudomonas aeruginosa [4]): 1 µM
LD (Staphylococcus aureus [5]): 6 µM
LD (Escherichia coli [6]): 0.3 µM

Compound: CC[C@H](C)[C@H](NC(=O)[C@H](CCCCN)NC(=O)[C@H](CCCCN)NC(=O)[C@H](Cc1ccccc1)NC(=O)[C@H](CC(C)C)NC(=O)[C@H](CCCCN)NC(=O)[C@H](Cc1c[nH]c2ccccc12)NC(=O)[C@@H](N)CCCCN)C(=O)N[C@@H](CCC(=O)O)C(=O)N[C@@H](CCCCN)C(=O)N[C@H](C(=O)NCC(=O)N[C@@H](CCC(N)=O)C(=O)NCC(=O)N[C@@H](C(=O)NCC(=O)N[C@@H](C)C(=O)N[C@H](C(=O)N[C@@H](CC(C)C)C(=O)N[C@@H](CCCCN)C(=O)N[C@H](C(=O)N[C@@H](CC(C)C)C(=O)N[C@H](C(=O)N[C@H](C(=O)NCC(=O)N[C@@H](CC(C)C)C(=O)O)[C@@H](C)O)[C@@H](C)O)C(C)C)C(C)C)[C@@H](C)CC)C(C)C
LD (Pseudomonas aeruginosa [4]): 1 µM
LD (Staphylococcus aureus [5]): 2 µM
LD (Escherichia coli [6]): 0.5 µM
